Reference: the NIST ThermoML archive (doi:10.1016/j.jct.2004.07.031)
Where “and” joins values, the source holds several entries; their conditions need not be identical. Equal values may be shown once.

Assay: molar heat capacity at constant pressure
Details: 101.33 kPa, Crystal, PPMS instrument (Quantum Design)

O=P([O-])([O-])[O-].[La+3] [lanthanum orthophosphate]
Details	molar heat capacity at constant pressure
2.046 K	0.00182 J/K/mol
2.066 K	0.00139 J/K/mol
2.067 K	0.0014 J/K/mol
2.068 K	0.00141 J/K/mol
2.083 K	0.00123 J/K/mol
2.246 K	0.0017 J/K/mol
2.247 K	0.0017 J/K/mol and 0.00172 J/K/mol
2.415 K	0.00201 J/K/mol
2.429 K	0.00212 J/K/mol
2.43 K	0.00213 J/K/mol
2.616 K	0.00265 J/K/mol
2.617 K	0.00266 J/K/mol
2.618 K	0.00266 J/K/mol
2.763 K	0.0031 J/K/mol
2.802 K	0.0034 J/K/mol
2.803 K	0.00342 J/K/mol
2.805 K	0.00339 J/K/mol
2.989 K	0.00467 J/K/mol
2.992 K	0.00476 J/K/mol
2.994 K	0.00473 J/K/mol
3 K	0.0053 J/K/mol
3.115 K	0.00524 J/K/mol
3.19 K	0.00601 J/K/mol
3.191 K	0.00593 J/K/mol and 0.00603 J/K/mol
3.383 K	0.00728 J/K/mol
3.385 K	0.00731 J/K/mol
3.386 K	0.0073 J/K/mol
3.473 K	0.00765 J/K/mol
3.505 K	0.00809 J/K/mol
3.578 K	0.00852 J/K/mol
3.58 K	0.00853 J/K/mol and 0.00852 J/K/mol
3.772 K	0.00994 J/K/mol
3.775 K	0.00998 J/K/mol
3.778 K	0.00998 J/K/mol
3.839 K	0.01034 J/K/mol
3.969 K	0.01147 J/K/mol
3.973 K	0.01149 J/K/mol
3.976 K	0.01146 J/K/mol
4.008 K	0.01178 J/K/mol
4.168 K	0.0131 J/K/mol
4.172 K	0.01315 J/K/mol
4.174 K	0.01314 J/K/mol
4.207 K	0.01339 J/K/mol
4.368 K	0.01481 J/K/mol
4.371 K	0.01487 J/K/mol
4.372 K	0.01494 J/K/mol
4.518 K	0.01632 J/K/mol
4.565 K	0.01686 J/K/mol
4.568 K	0.01687 J/K/mol
4.569 K	0.0169 J/K/mol
4.576 K	0.01697 J/K/mol
4.763 K	0.01882 J/K/mol
4.765 K	0.01903 J/K/mol
4.768 K	0.01911 J/K/mol
4.946 K	0.02113 J/K/mol
4.961 K	0.02146 J/K/mol
4.965 K	0.02154 J/K/mol
4.967 K	0.02153 J/K/mol
5.031 K	0.02216 J/K/mol
5.166 K	0.02384 J/K/mol
5.173 K	0.02394 J/K/mol
5.174 K	0.02375 J/K/mol
5.323 K	0.02601 J/K/mol
5.367 K	0.0265 J/K/mol
5.369 K	0.02666 J/K/mol
5.37 K	0.02686 J/K/mol
5.546 K	0.02914 J/K/mol
5.565 K	0.02951 J/K/mol
5.574 K	0.02974 J/K/mol and 0.02916 J/K/mol
5.695 K	0.03139 J/K/mol
5.77 K	0.03276 J/K/mol
5.771 K	0.03277 J/K/mol
5.774 K	0.03288 J/K/mol
5.965 K	0.03647 J/K/mol
5.967 K	0.03583 J/K/mol
5.974 K	0.03623 J/K/mol
6.057 K	0.03765 J/K/mol
6.065 K	0.03776 J/K/mol
6.165 K	0.03972 J/K/mol
6.17 K	0.03972 J/K/mol
6.171 K	0.03961 J/K/mol
6.367 K	0.04348 J/K/mol
6.37 K	0.04345 J/K/mol
6.373 K	0.04366 J/K/mol
6.438 K	0.04486 J/K/mol
6.567 K	0.04741 J/K/mol
6.572 K	0.04748 J/K/mol
6.574 K	0.04752 J/K/mol and 0.04753 J/K/mol
6.768 K	0.05148 J/K/mol
6.773 K	0.05174 J/K/mol
6.774 K	0.05167 J/K/mol
6.812 K	0.05274 J/K/mol
6.968 K	0.0563 J/K/mol
6.973 K	0.0564 J/K/mol
6.976 K	0.05661 J/K/mol
7.087 K	0.05926 J/K/mol
7.169 K	0.06123 J/K/mol
7.175 K	0.06142 J/K/mol
7.176 K	0.06139 J/K/mol
7.188 K	0.06178 J/K/mol
7.371 K	0.06581 J/K/mol
7.377 K	0.06689 J/K/mol
7.381 K	0.06684 J/K/mol
7.56 K	0.07178 J/K/mol
7.57 K	0.07164 J/K/mol
7.575 K	0.072 J/K/mol
7.579 K	0.07223 J/K/mol
7.604 K	0.07273 J/K/mol
7.774 K	0.07756 J/K/mol
7.778 K	0.07802 J/K/mol
7.779 K	0.07794 J/K/mol
7.937 K	0.08278 J/K/mol
7.975 K	0.08393 J/K/mol
7.98 K	0.08397 J/K/mol
7.983 K	0.08418 J/K/mol
8.119 K	0.08872 J/K/mol
8.176 K	0.09007 J/K/mol
8.182 K	0.09043 J/K/mol
8.184 K	0.09022 J/K/mol
8.313 K	0.09473 J/K/mol
8.378 K	0.09678 J/K/mol
8.383 K	0.09686 J/K/mol
8.385 K	0.09715 J/K/mol
8.584 K	0.1041 J/K/mol
8.589 K	0.1043 J/K/mol
8.592 K	0.1046 J/K/mol
8.642 K	0.1065 J/K/mol
8.696 K	0.1085 J/K/mol
8.785 K	0.1119 J/K/mol
8.792 K	0.1125 J/K/mol
8.794 K	0.1122 J/K/mol
8.987 K	0.1198 J/K/mol
8.993 K	0.1201 J/K/mol
8.996 K	0.1202 J/K/mol
9.07 K	0.1232 J/K/mol
9.158 K	0.127 J/K/mol
9.188 K	0.1284 J/K/mol
9.196 K	0.131 J/K/mol and 0.1286 J/K/mol
9.198 K	0.1286 J/K/mol
9.393 K	0.1371 J/K/mol
9.398 K	0.1378 J/K/mol
9.4 K	0.1349 J/K/mol
9.447 K	0.1398 J/K/mol
9.586 K	0.1462 J/K/mol
9.598 K	0.1469 J/K/mol
9.602 K	0.1471 J/K/mol
9.675 K	0.1505 J/K/mol
9.792 K	0.1565 J/K/mol
9.8 K	0.1568 J/K/mol
9.805 K	0.157 J/K/mol
9.822 K	0.1578 J/K/mol
9.994 K	0.1666 J/K/mol
10 K	0.1669 J/K/mol
10.01 K	0.1671 J/K/mol
10.19 K	0.1769 J/K/mol
10.2 K	0.1776 J/K/mol and 0.1771 J/K/mol
10.21 K	0.1778 J/K/mol
11.18 K	0.2376 J/K/mol
12.19 K	0.3139 J/K/mol
13.19 K	0.4068 J/K/mol
14.19 K	0.5187 J/K/mol
15.2 K	0.6528 J/K/mol
16.21 K	0.8094 J/K/mol
17.22 K	0.9882 J/K/mol
18.24 K	1.192 J/K/mol
19.25 K	1.422 J/K/mol
20.24 K	1.669 J/K/mol
21.28 K	1.955 J/K/mol
22.27 K	2.25 J/K/mol
23.28 K	2.587 J/K/mol
24.29 K	2.937 J/K/mol
25.31 K	3.319 J/K/mol
26.33 K	3.721 J/K/mol
27.36 K	4.152 J/K/mol
28.34 K	4.576 J/K/mol
29.38 K	5.046 J/K/mol
30.37 K	5.505 J/K/mol
31.4 K	6.006 J/K/mol
32.4 K	6.51 J/K/mol
33.41 K	7.04 J/K/mol
34.43 K	7.567 J/K/mol
35.43 K	8.121 J/K/mol
36.45 K	8.686 J/K/mol
37.45 K	9.258 J/K/mol
38.41 K	9.809 J/K/mol
38.46 K	9.827 J/K/mol
39.48 K	10.43 J/K/mol
40.48 K	11.02 J/K/mol
40.49 K	11.03 J/K/mol
42.49 K	12.25 J/K/mol
44.51 K	13.49 J/K/mol
46.53 K	14.76 J/K/mol
48.55 K	16.05 J/K/mol
50.57 K	17.36 J/K/mol
52.59 K	18.66 J/K/mol
54.6 K	19.95 J/K/mol
56.62 K	21.25 J/K/mol
58.64 K	22.56 J/K/mol
60.66 K	23.86 J/K/mol
62.68 K	25.14 J/K/mol
64.7 K	26.41 J/K/mol
66.72 K	27.64 J/K/mol
68.74 K	28.87 J/K/mol
70.74 K	30.08 J/K/mol
72.76 K	31.29 J/K/mol
74.78 K	32.47 J/K/mol
75.85 K	33.08 J/K/mol
76.8 K	33.62 J/K/mol
78.81 K	34.78 J/K/mol
80.81 K	35.87 J/K/mol
80.84 K	35.88 J/K/mol
85.86 K	38.64 J/K/mol
90.91 K	41.31 J/K/mol
95.96 K	43.8 J/K/mol
101 K	46.3 J/K/mol
106 K	48.66 J/K/mol
111.1 K	50.92 J/K/mol
116.1 K	53.11 J/K/mol
121.2 K	55.16 J/K/mol
126.2 K	57.26 J/K/mol
131.3 K	59.2 J/K/mol
136.3 K	61.11 J/K/mol
141.4 K	62.97 J/K/mol
146.4 K	64.73 J/K/mol
151.4 K	66.44 J/K/mol
156.5 K	68.1 J/K/mol
161.5 K	69.61 J/K/mol
166.5 K	71.14 J/K/mol
171.6 K	72.74 J/K/mol
176.6 K	74.33 J/K/mol
181.6 K	75.68 J/K/mol
186.7 K	77.05 J/K/mol
191.7 K	78.48 J/K/mol
196.7 K	79.89 J/K/mol
201.8 K	81.31 J/K/mol
206.8 K	82.59 J/K/mol
211.8 K	83.86 J/K/mol
216.9 K	85.21 J/K/mol
221.9 K	86.36 J/K/mol
226.9 K	87.35 J/K/mol
231.9 K	88.39 J/K/mol
237 K	89.46 J/K/mol
242 K	90.5 J/K/mol
247 K	91.49 J/K/mol
252.1 K	92.36 J/K/mol
257.1 K	93.28 J/K/mol
262.1 K	94.21 J/K/mol
267.1 K	95.29 J/K/mol
272.1 K	96.19 J/K/mol
277.1 K	97.31 J/K/mol
282.2 K	98.39 J/K/mol and 98.37 J/K/mol
287.2 K	99.41 J/K/mol
287.3 K	99.33 J/K/mol
292.2 K	100.36 J/K/mol
292.3 K	100.2 J/K/mol
297.3 K	100.95 J/K/mol
302.26 K	101.79 J/K/mol
302.33 K	101.79 J/K/mol
302.35 K	101.81 J/K/mol
307.29 K	102.41 J/K/mol
307.35 K	102.45 J/K/mol
307.37 K	102.44 J/K/mol
312.31 K	103.05 J/K/mol
312.37 K	102.95 J/K/mol
312.39 K	103 J/K/mol
317.33 K	103.53 J/K/mol
317.4 K	103.64 J/K/mol
317.42 K	103.68 J/K/mol
322.35 K	104.24 J/K/mol
322.44 K	104.25 J/K/mol
322.45 K	104.34 J/K/mol
327.36 K	105.12 J/K/mol
327.45 K	105.03 J/K/mol
327.48 K	104.97 J/K/mol
332.38 K	105.69 J/K/mol
332.46 K	105.73 J/K/mol
332.48 K	105.57 J/K/mol
337.4 K	106 J/K/mol
337.5 K	106.2 J/K/mol and 106.19 J/K/mol
342.43 K	106.41 J/K/mol
342.53 K	106.46 J/K/mol
342.55 K	106.5 J/K/mol
347.11 K	107.02 J/K/mol
347.2 K	106.86 J/K/mol
347.23 K	106.97 J/K/mol
351.79 K	107.32 J/K/mol
351.86 K	107.38 J/K/mol and 107.33 J/K/mol
356.73 K	107.65 J/K/mol
356.79 K	107.89 J/K/mol
356.81 K	107.7 J/K/mol
361.73 K	108.18 J/K/mol
361.79 K	108.22 J/K/mol
361.8 K	108.28 J/K/mol
366.74 K	108.45 J/K/mol
366.81 K	108.25 J/K/mol and 108.64 J/K/mol
371.74 K	108.81 J/K/mol
371.8 K	108.77 J/K/mol
371.82 K	108.81 J/K/mol
376.74 K	109.11 J/K/mol
376.8 K	109 J/K/mol
376.82 K	108.98 J/K/mol
381.74 K	109.41 J/K/mol
381.81 K	109.29 J/K/mol
